{
  "source": "patent US20090280177A1",
  "about": "“Pharmaceutical preparation for treating fibromyalgia” (priority 2006, published 2009)",
  "origin": "cited, not measured here",
  "key": {"[1]": {"test_system": "T cell-independent antigen"}, "T cells": {"test_system": "T cells", "details": "dose-dependent manner"}, "[2]": {"test_system": "peripheral blood-adhesive cells from chronic rheumatoid arthritis patients"}, "T cell-dependent antigen": {"test_system": "T cell-dependent antigen", "details": "dose-dependent manner"}},
  "data": [
    {"smiles": "O=C(O)c1cc(/N=N/c2ccc(S(=O)(=O)Nc3ccccn3)cc2)ccc1O", "note": "[salazosulfapyridine, 2-Hydroroxy-5-[4-(pyridine-2-ylsulfamoyl)phenylazo] benzoic acid]", "values": [
      {"measurement": "immune response to a T cell-independent antigen", "setting": "[1]", "value": "hardly suppressed"},
      {"measurement": "IL-2 production", "setting": "T cells", "value": "suppress"},
      {"measurement": "production of IL-1 and IL-6", "setting": "[2]", "value": "suppress"},
      {"measurement": "immune response to a T cell-dependent antigen", "setting": "T cell-dependent antigen", "value": "suppressed"}
    ]}
  ]
}
